Results published in patent publication US11597911B2, “Expansion of populations of T cells by the use of modified serum free media” (Life Technologies Corporation, priority 2017, dated 2023).

How the values were obtained:
[1] = test system: Naïve and Central Memory CD4+ T cells; assay: Expansion and cytokine production of sorted CD4+ T cell subsets in limited glucose:galactose media; type: cell-based, human; conditions: in the presence of low glucose; FIG. 21
From the text: Bulk CD4+ T cells were sorted into Tregs, Naïve, Tcm (central memory), and Tem (effector memory) subsets based on the markers CD25, CD45RA, CD62L, and CCR7. Based on FIG. 20, T cells of different subpopulations may be sorted through use of FACS. […] Expanded naïve CD4+ T cells preserve the naïve phenotype when grown in limited glucose, as witnessed through FACS analysis (see FIG. 22 and FIG. 23).
While good expansion of T cells can be achieved in media containing multiple ratios of glucose and galactose, ratios with limiting glucose can have a negative impact in interferon gamma production. There is evidence that interferon-gamma expression is regulated via GAPDH in T-cells (Chang, et al Cell. 2013 June 6; 153(6): 1239-1251) thus excessively limiting glycolysis during T cell expansion can impair IFN-γ production. […] Central memory T cells appear not to be effected by glucose level. […] Primary human CD4+ T cells from normal donors isolated via negative selection were obtained from UPenn Human Immunology Core Facility. Cells were separated by flow cytometric sorting into Naïve (CD45RA+/CD27+/CCR7+), and Central Memory (CD45RA−/CD27+/CCR7+), subsets. […] T cells were fed and counted on days 5, 7, 10 and 12 on a Beckman-Coulter Multisizer 3. […]

Primary human T cells = assay: T cell expansion in serum-free medium with glucose, galactose or mixtures; type: cell-based; conditions: final sugar 6 g/L; lipid concentrate 1:100; CD3/CD28 beads; counted days 5-12; FIG. 3
From the text: FIG. 3 is a graph depicting that galactose alone is suboptimal for human T cell expansion. Primary human T cells from normal donors were negatively isolated from PBMCs with DYNABEADS® UNTOUCHED™ Human T Cells kit. T cells (seeding density 1×10^6/mL) were activated with DYNABEADS® Human T-Expander CD3/CD28 at a ratio of 3 beads per T cell and cultured in serum-free medium supplemented with GIBCO™ Chemically Defined Lipid Concentrate (1:100) and either d-glucose, d-galactose or mixtures of glucose and galactose as indicated; final concentration of sugar was 6 g/L in all conditions. T cells were fed and counted on days 5, 7, 10 and 12 on a Beckman-Coulter ViCell analyzer. Cell expansion is expressed as cumulative viable T cells over time. Results are representative of at least 3 independent experiments.
Primary human T cells from normal donors were negatively isolated from PBMCs with DYNABEADS® UNTOUCHED™ Human T Cells kit. […] T cells were fed and counted on days 5, 7, 10 and 12 on a Beckman-Coulter ViCell analyzer. Cell expansion is expressed as cumulative viable T cells over time. […]

For O=C[C@H](O)[C@@H](O)[C@@H](O)[C@H](O)CO [D-galactose], the “expansion of naïve T cells” value [1] was “high rate of expansion” and the “in vitro T cell expansion (cumulative viable T cells over time)” value (Primary human T cells) was “not sufficient to support optimal in vitro T cell expansion”.
